Patent publication US20220088044A1, “SUBSTANCES FOR TREATMENT OF CORONAVIRUS INFECTION” (ScandiBio Therapeutics AB, priority 2020, published 2022)
Where two headings read alike, the source gives them in different places.

Legend:
[1] = system: patients with chronic hepatitis C; settings: 2 grams 2 times a day, compared to placebo; cited from earlier work
[2] = cited from earlier work
[3] = system: acute myocardial infarction; settings: five controlled trials, n=3108; cited from earlier work
[4] = system: lamb model with increased pulmonary blood flow; settings: chronic treatment; cited from earlier work
[5] = cited from earlier work; remark: listed apart in the source
[6] = cited from earlier work; remark: listed apart in the source
blood NAD+ [7] = settings: cited from earlier work
[8] = cited from earlier work; remark: listed apart in the source
blood NAD+ [9] = settings: cited from earlier work; remark: listed apart in the source
[10] = system: LPS-induced acute lung injury; settings: in vivo; cited from earlier work
[11] = cited from earlier work; remark: listed apart in the source
[12] = system: acute respiratory distress syndrome (ARDS); settings: human, in vivo; cited from earlier work
HIV patients = settings: cited from earlier work
[13] = system: patients with community-acquired pneumonia; settings: compared to conventional therapy; cited from earlier work
[14] = cited from earlier work; remark: listed apart in the source
[15] = system: epithelial cells exposed to the H5N1 influenza A virus; settings: cited from earlier work
COPD exacerbations = settings: in vivo; cited from earlier work
premature new-borns = settings: 20 mg/kg/day; cited from earlier work
[16] = after ingestion of supplemental nicotinamide; cited from earlier work
traumatic brain injury = settings: mouse, in vivo; cited from earlier work
[17] = system: obese subjects with hepatic steatosis; test: Short-term dietary supplementation with serine in obese subjects with hepatic steatosis; format: in vivo, human
Method: To test the model-based predictions, we assessed the effect of short-term dietary supplementation with serine on fatty liver and fasting levels of plasma markers of liver functions in six obese subjects (BMI 32.5±2.70 kg/m2) with hepatic steatosis. Each patient received one oral dose of ˜20 g of L-serine (200 mg/kg) per day for 14 days. The supplementation was well-tolerated by all subjects. […] We examined the concept by testing if supplementation of GSH and NAD+ precursors for two weeks would decrease high fat diet induced liver fat accumulation in mice. Therefore, we gave serine 300 mg/kg/day and nicotinamide riboside (NR) 400 mg/kg/day la gavage as well as 1 g/l of NAC (N-acetyl-L-cysteine) in the drinking water for 14 days to high fat diet-fed mice.

[18] = system: adults with hereditary sensory and autonomic neuropathy type 1 (HSAN1); settings: 400 mg/kg/day, long-term (one to two years); cited from earlier work
[19] = cited from earlier work; remark: listed apart in the source
[20] = system: Pasteurella multocida infection; settings: mouse, in vivo; cited from earlier work
aging mice = settings: mouse, in vivo; cited from earlier work
mice = settings: cited from earlier work

CC(=O)O[C@H](CC(=O)[O-])C[N+](C)(C)C [Acetyl-L-Carnitine]
daily activity and fatigue [1]: increase daily activity in patients, reduce fatigue

C[N+](C)(C)C[C@H](O)CC(=O)[O-] [L-carnitine]
solubility in acetone [2]: insoluble
solubility in water, hot alcohol [2]: readily soluble
heart failure, unstable angina, or myocardial reinfarction: daily 2 g versus 6 g [3]: no significant differences
lung carnitine homeostasis, oxidative stress, mitochondrial and endothelial function [4]: alleviates changes in lung carnitine homeostasis, reduces associated oxidative stress, and improves pulmonary mitochondrial function, NO signalling and eventually endothelial function
tolerability ([5]; in vivo): usually well tolerated
toxicity from over dosage ([5]; in vivo): no reports of toxicity
absolute bioavailability ([6]; in vivo): 15-16%
faecal excretion of total carnitine ([6]; in vivo): less than 1 % of the administered dose
mean apparent terminal elimination half-life ([6]; in vivo): 17.4 h
mean distribution half-life ([6]; in vivo): ~0.6 h
removal from plasma by dialysis ([6]; in vivo): easily removed from plasma by dialysis
total body clearance (Dose/AUC including endogenous baseline concentrations), mean ([6]; in vivo): 4.00 L/h
binding to plasma protein or albumin ([6]; tested at any concentration): not bound

NC(=O)c1ccc[n+]([C@@H]2O[C@H](CO)[C@@H](O)[C@H]2O)c1 [NR, Nicotinamide riboside]
tolerability (blood NAD+ [7]; oral, 250 mg up-titrated to 1000 mg twice daily, 9 days): well tolerated with no adverse events
increase of blood NAD+, baseline to steady state (blood NAD+ [7]; p=0.001): 100%
whole-blood NR, baseline to mean concentration at steady state (blood NAD+ [7]; p=0.03): Significant increases
lowest observed adverse effect level ([8]; 90-day study): 1000 mg/kg/day
no observed adverse effect level ([8]; 90-day study): 300 mg/kg/day
mortality ([8]; oral dose of 5000 mg/kg): no mortality
blood NAD+ metabolome (blood NAD+ [9]; single doses of 100, 300 and 1,000 mg): dose-dependent increases
rise of human blood NAD+ (blood NAD+ [9]; single oral dose, pilot study): ≤ 2.7 fold

O=C(O)c1cccnc1 [niacin]
LPS-induced acute lung injury [10]: alleviate LPS-induced acute lung injury

CC(=O)N[C@@H](CS)C(=O)O [NAC, N-acetylcysteine]
half-life ([11]; adults): 5.6 to 6 h
time to peak plasma concentration ([11]; after application): 30 to 60 min
absorption ([11]; after oral administration): rapidly absorbed
share of amount passed to the blood determined in the lungs ([11]; after oral administration): 48%
distribution volume (Vd) ([11]; in vivo): 0.33 to 0.47 L/kg
excreted in urine in the form of sulfate and taurine ([11]; in vivo): 22-30%
rate of binding to plasma proteins ([11]; in vivo): about 50%
effect of food intake ([11]; oral): not affected
duration of stay in intensive care [12]: has been shortened
short-term mortality or 30-day mortality [12]: did not contribute to reducing short-term mortality or 30-day mortality
glutathione levels in red blood cells (HIV patients; 900 mg or 1800 mg twice daily): increased significantly
red blood cell oxidized glutathione levels (HIV patients; 900 mg or 1800 mg twice daily): decreased significantly
glutathione: glutathione disulfide (GSH:GSSG) ratios (HIV patients; both doses compared to placebo): generally non-significant increased
inflammatory response and oxidative stress [13]: improves inflammatory response and oxidative stress
safety profile ([14]; HIV-infected patients, oral 6,000-8,000 mg daily for several months): good safety profile
safety in humans ([14]; daily dosage of 4-6 grams): shown to be safe
serious adverse events or signs of intoxication ([14]; even at very high doses): serious adverse events or signs of intoxication are not observed
incidence of most common adverse reactions (rash, urticaria/facial flushing, pruritus, nausea and vomiting) ([14]; in vivo): greater than 2%
anaphylactic reactions, share of people ([14]; within 30 min after IV loading dose): 3-6%
inflammatory response [15]: reduce
number and effect of COPD exacerbations (COPD exacerbations): reduce the number and effect of COPD exacerbations

C[N+](C)(C)CC(O)CC(=O)[O-] (stereo not shown) [carnitine]
side effects ([5]; doses of approximately 3 g/day): nausea, vomiting, abdominal cramps, diarrhoea, and a “fishy” body odor
total carnitine concentrations in plasma and red blood cells (premature new-borns): increases total carnitine concentrations in plasma and red blood cells

NC(=O)c1cccnc1 [nicotinamide]
flushing or glucose intolerance [16]: no cases of flushing or glucose intolerance have been reported

N[C@@H](CO)C(=O)O [L-serine]
neuroprotection (traumatic brain injury): lead to neuroprotection
ALT, AST, and ALP levels ([17]; after 14 days supplementation): significantly decreased
liver fat ([17]; after ~20 g L-serine (200 mg/kg) oral per day for 14 days, decreased significantly from 26.8±6.0%): 20.4±7.0%
tolerability ([17]; ~20 g L-serine per day for 14 days): well-tolerated
adverse effects (vital signs, physical examination, clinical laboratory) [18]: did not reveal adverse effects
safety in humans ([19]; doses up to 400 mg/kg/day (around 25-30 g/day)): shown to be safe
safety in pregnancy ([19]; three daily doses of 5 g (190 mg/kg), pre- and postnatal treatment of 3-phosphoglycerate-dehydrogenase deficiency): safe even in pregnancy
macrophage- and neutrophil-mediated inflammatory responses [20]: decrease the macrophage- and neutrophil-mediated inflammatory responses
body weight, oxidative stress and inflammation (aging mice): reduce body weight by decreasing orexigenic peptide expression and reduces oxidative stress and inflammation

CC(=O)N[C@@H](CSN=O)C(=O)O [SNOAC, S-nitroso-N-acetylcysteine]
expression of several important genes (mice; in vitro and in vivo): induced a hypoxia-like response
blood pressure in lungs and right ventricle (pulmonary artery hypertension) (mice; metabolite formed in mice treated with acetylcysteine): increased blood pressure in the lungs and right ventricle of the heart
